Measurements as given in the supplement of paper PMC10307832.

Columns and labels:
Test in all cases: relative viability (nuclei count vs DMSO), 5 days (fraction); higher = more cells survive
[1] = compound: CN1C=C(C2=CC=CC=C21)/C=C\3/C4=C(C=CC=N4)NC3=O + CC(=O)c1c(C)c2cnc(Nc3ccc(N4CCNCC4)cn3)nc2n(C2CCCC2)c1=O [Palbociclib] (partner 0.5 µM)
How it was run: (§1)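 Dosing by pin tool came one day after lung cancer cell lines were seeded in 1536-well plates, using either one drug or a fixed anchor-drug dose plus five library-drug doses (not always all listed) in √10 steps. After 5 days, nuclei were counted on 4× images. Relative viability is treated-well nuclei count divided by vehicle-well nuclei count, and values are medians of duplicate plates.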

[2] = compound: CN1C=C(C2=CC=CC=C21)/C=C\3/C4=C(C=CC=N4)NC3=O + Cc1nc(Nc2ncc(C(=O)Nc3c(C)cccc3Cl)s2)cc(N2CCN(CCO)CC2)n1 [Dasatinib] (partner 0.075 µM)
How it was run: as §1

Trametinib + Crizotinib = compound: CC(=O)Nc1cccc(-n2c(=O)n(C3CC3)c(=O)c3c(Nc4ccc(I)cc4F)n(C)c(=O)c(C)c32)c1 [Trametinib] + C[C@@H](Oc1cc(-c2cnn(C3CCNCC3)c2)cnc1N)c1c(Cl)ccc(F)c1Cl [Crizotinib] (partner 1 µM)
How it was run: as §1

[3] = compound: CN1C=C(C2=CC=CC=C21)/C=C\3/C4=C(C=CC=N4)NC3=O + O=C(c1cc(Cc2n[nH]c(=O)c3ccccc23)ccc1F)N1CCN(C(=O)C2CC2)CC1 [Olaparib] (partner 8 µM)
How it was run: as §1

Row | Cell Line | relative viability ([1]; first compound 0.02 µM) | relative viability ([1]; first compound 0.06325 µM) | relative viability ([1]; first compound 0.2 µM) | relative viability ([1]; first compound 0.6325 µM) | relative viability ([1]; first compound 2 µM) | relative viability ([2]; first compound 0.02 µM) | relative viability ([2]; first compound 0.06325 µM) | relative viability ([2]; first compound 0.2 µM) | relative viability ([2]; first compound 0.6325 µM) | relative viability ([2]; first compound 2 µM) | relative viability (Trametinib + Crizotinib; first compound 0.0025 µM) | relative viability (Trametinib + Crizotinib; first compound 0.007906 µM) | relative viability (Trametinib + Crizotinib; first compound 0.025 µM) | relative viability (Trametinib + Crizotinib; first compound 0.07906 µM) | relative viability (Trametinib + Crizotinib; first compound 0.25 µM) | relative viability ([3]; first compound 0.02 µM) | relative viability ([3]; first compound 0.06325 µM) | relative viability ([3]; first compound 0.2 µM) | relative viability ([3]; first compound 0.6325 µM) | relative viability ([3]; first compound 2 µM)
1 | LXF-289 | 0.589 | 0.593 | 0.626 | 0.656 | 0.775 | 0.203 | 0.197 | 0.184 | 0.2 | 0.202 | 0.738 | 0.711 | 0.608 | 0.531 | 0.353 | 1.09 | 0.998 | 1.19 | 1.07 | 1.1
2 | NCI-H23 | 0.506 | 0.408 | 0.417 | 0.499 | 0.486 | 0.769 | 0.741 | 0.518 | 0.698 | 0.8 | 0.389 | 0.428 | 0.34 | 0.387 | 0.263 | 0.253 | 0.357 | 0.218 | 0.293 | 0.262
3 | NCI-H322M | 0.451 | 0.458 | 0.487 | 0.498 | 0.5 | 0.239 | 0.254 | 0.236 | 0.248 | 0.264 | 0.943 | 0.986 | 0.686 | 0.697 | 1.04 | 0.766 | 0.717 | 0.718 | 0.961 | 0.923
4 | NCI-H358 | 0.147 | 0.152 | 0.123 | 0.13 | 0.138 | 0.145 | 0.166 | 0.174 | 0.186 | 0.198 | 0.526 | 0.349 | 0.276 | 0.243 | 0.194 | 0.607 | 0.534 | 0.564 | 0.565 | 0.507
5 | NCI-H441 | 0.199 | 0.163 | 0.189 | 0.194 | 0.193 | 0.541 | 0.638 | 0.548 | 0.538 | 0.677 | 0.757 | 0.691 | 0.608 | 0.448 | 0.294 | 0.52 | 0.47 | 0.611 | 0.405 | 0.588
6 | NCI-H460 | 0.209 | 0.153 | 0.0627 | 0.103 | 0.157 | 0.648 | 0.448 | 0.388 | 0.44 | 0.459 | 0.857 | 0.552 | 0.476 | 0.289 | 0.0283 | 0.463 | 0.417 | 0.491 | 0.435 | 0.367
7 | NCI-H520 | 0.261 | 0.227 | 0.219 | 0.218 | 0.218 | 0.206 | 0.213 | 0.199 | 0.182 | 0.221 | 0.752 | 0.681 | 0.815 | 0.733 | 0.557 | 0.298 | 0.369 | 0.312 | 0.342 | 0.363
8 | NCI-H647 | 0.367 | 0.354 | 0.292 | 0.37 | 0.348 | 0.208 | 0.176 | 0.105 | 0.143 | 0.167 | 0.961 | 1.04 | 0.746 | 0.671 | 0.572 | 0.262 | 0.426 | 0.446 | 0.395 | 0.458
9 | NCI-H650 | 0.385 | 0.341 |  | 0.356 | 0.391 | 0.519 | 0.494 |  | 0.415 | 0.39 | 0.787 | 0.736 | 0.672 | 0.668 | 0.339 | 0.464 | 0.418 |  | 0.434 | 0.411
10 | NCI-H661 | 0.425 | 0.406 | 0.343 | 0.389 | 0.37 | 0.892 | 0.827 | 0.626 | 0.819 | 0.853 | 1.12 | 1.19 | 1.03 | 1.04 | 1.08 | 0.825 | 0.722 | 0.791 | 0.89 | 0.822
11 | NCI-H727 | 0.63 | 0.575 | 0.653 | 0.652 | 0.623 | 0.332 | 0.372 | 0.365 | 0.332 | 1.12 | 0.381 | 0.278 | 0.279 | 0.195 | 0.206 | 0.76 | 0.729 | 0.67 | 0.688 | 0.635
12 | NCI-H838 | 0.208 | 0.174 | 0.214 | 0.199 | 0.18 | 0.146 | 0.277 | 0.242 | 0.27 | 0.261 | 0.786 | 0.689 |  | 0.572 | 0.411 | 0.695 | 0.604 | 0.653 | 0.765 | 0.67
13 | NCI-H1355 | 0.303 | 0.369 | 0.387 | 0.476 | 0.517 | 0.671 | 0.586 | 0.571 | 0.399 | 0.502 | 1.01 | 0.869 | 0.645 | 0.655 | 0.47 | 0.558 | 0.678 | 0.717 | 0.469 | 0.574
14 | NCI-H1437 | 0.344 | 0.34 | 0.292 | 0.32 | 0.318 | 0.411 | 0.416 | 0.3 | 0.455 | 0.479 | 0.952 | 0.883 | 0.572 | 0.373 | 0.472 | 0.628 | 0.644 | 0.657 | 0.681 | 0.658
15 | NCI-H1650 | 0.299 | 0.274 | 0.267 | 0.299 | 0.353 | 0.262 | 0.296 | 0.26 | 0.263 | 0.277 | 1.04 | 0.779 | 0.795 | 0.69 | 0.302 | 0.843 | 0.69 | 0.718 | 0.714 | 0.749
16 | NCI-H1651 | 0.563 | 0.492 | 0.554 | 0.5 | 0.542 | 0.522 | 0.534 | 0.353 | 0.464 | 0.345 | 0.898 | 0.804 | 0.828 | 0.743 | 0.729 | 0.18 | 0.164 | 0.182 | 0.197 | 0.217
